Reference: patent publication US20250288587A1, “Methods of Treating Fibrosis” (Athira Pharma, Inc., priority 2022, published 2025)

Columns and labels:
MRC-5 cells = test: TGFβ-stimulated αSMA expression in MRC-5 cells (HTRF); type: cell-based; set-up: key to Significant reduction in αSMA via HTRF compared to TGFβ alone: NS = no statistically significant change in aSMA expression; + = p < 0.05; ++ = p < 0.01; +++ = p < 0.005; ++++ = p < 0.001; details: for Significant reduction in αSMA via HTRF compared to TGFβ alone: TGFβ 1 ng/ml, HGF 0.01 ng/ml, 48 h
Method in brief: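 Confluent MRC-5 fibroblasts serum-starved 2 h, then stimulated with TGFβ (final 1 ng/ml). After 2 h, HGF alone or with compound added; αSMA in lysates measured by HTRF after 48 h, relative to TGFβ-stimulated cultures. Dunnett's post-test after 1-way ANOVA.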

[1] = system: pulmonary LPS-stimulated rats; test: Cytokine expression in BALF supernatant (multiplex immunoassay), LPS-induced acute pulmonary inflammation; type: in vivo
[2] = system: pulmonary LPS-stimulated rats; test: Immune cell infiltration in BALF, LPS-induced acute pulmonary inflammation; type: in vivo; details: 0.0075 mg/kg IV, 24 h and 0.5 h before LPS; BALF 4 h post LPS
CFA-stimulated rats [3] = test: CFA inflammatory pain model, thermal hyperalgesia (Hargreaves method); type: in vivo; details: Day 5, 1 hour pre-dosing; data not shown
CFA-stimulated rats [4] = test: CFA inflammatory pain model, cytokine expression in paw skin; type: in vivo; set-up: key to IFN-γ expression in paw skin, change compared to CFA alone / IL-4 expression in paw skin, change compared to CFA alone / TNF-α expression in paw skin, change compared to CFA alone: NS = no statistically significant change in expression compared to CFA alone; + = statistically significant change in expression compared to CFA alone, p < 0.05; details: day 8
Protocol: Response to peripheral inflammatory stimulus can be modeled by administering complete Freund's adjuvant (CFA), a suspension of desiccated mycobacterium in paraffin oil and mannide monooleate, by subcutaneous injection into the rat's footpad. The introduction of CFA to peripheral tissues leads to a rapid, sustained, inflammatory reaction in the treated tissue within 24 hours. Subcutaneous administration of CFA in the plantar region of the paw induces inflammatory pain behaviors that persist for at least 8 days. CFA treatment also leads to the accumulation of inflammatory cytokines in paw tissue at the site of injury, which, if unresolved, can lead to formation of fibrotic tissue. The extent of inflammatory response to CFA can be assessed by quantification of inflammatory cytokines in paw skin lysate, and inflammatory pain behaviors by mechanical allodynia (von Frey test) and thermal hyperalgesia (Hargreaves test).
In another study, Compounds 1a, 5a, and 6a were similarly tested against CFA-induced inflammatory stimulation in the right hind foot for their ability to reduce pain behaviors. This study also included quantification of inflammatory cytokine expression in paw skin lysate. Inflammatory pain stimulation with CFA injection and assessment of mechanical and thermal pain behaviors were performed as described above, with the exception that only post-dose pain behavior testing is reported.
Intraplantar CFA injection occurred at day 0. Treatment with Compounds 1a, 5a, and 6a occurred at days −2, 1, 3, and 7. At day 8, the rats were terminated and cytokine levels were measured in paw skin and plasma. Tissue from paw bone, joint, and muscle were obtained for H&E staining and analysis. Cytokine levels in test compound-treated animals were compared to CFA-stimulated animals. Analytes included interleukin 4 (IL-4), tumor necrosis factor alpha (TNF-α) and interferon gamma (IFN-γ). Statistical analysis consisted of 1-way ANOVA followed by Dunnett's multiple comparisons post-test. Mechanical allodynia and thermal hyperalgesia were tested 1 hour post-dosing on days 1, 3, and 7. PWT refers to […] paw withdrawal threshold where a higher value corresponds to a higher pain threshold. PWL refers to […] paw withdrawal latency where a higher value corresponds to a higher pain threshold.

[5] = system: pulmonary LPS-stimulated rats; test: Immune cell infiltration in BALF, LPS-induced acute pulmonary inflammation; type: in vivo; set-up: key to Total Leukocytes in BALF, reduction in cell count vs disease control / Neutrophils in BALF, reduction in cell count vs disease control: + = >5-25% improvement vs disease control; ++ = >26-50% improvement vs disease control; +++ = >51-100% improvement v disease control; NS means not significant; details: 24 h and 0.5 h before LPS; for Neutrophils in BALF, reduction in cell count vs disease control / Total Leukocytes in BALF, reduction in cell count vs disease control: BALF 4 h post LPS
Excerpt: Acute pulmonary inflammation can be effectively modeled in rats by intratracheal administration of bacterial lipopolysaccharides (LPS). Pulmonary inflammation that is left unresolved can lead to pulmonary fibrosis. The normal process of inflammation is regulated and promoted by expression, secretion, and distribution of inflammatory signaling proteins. Therapeutics intended to reduce inflammation are commonly identified by their ability to change the expression levels of inflammatory signaling molecules, either by disruption of the inflammatory pathway directly, or resolution of the inflammatory signaling cascade. The severity of inflammatory response can be measured by quantifying the amount of immune cell infiltration and secretion of cytokine signaling proteins in bronchoalveolar lavage fluid (BALF).
In this study, acute pulmonary inflammation was induced in healthy male Sprague-Dawley rats (7-9 weeks old at study start) by intratracheal instillation of […] LPS in saline. Test animals were treated with test compounds twice, at 24 hours and 0.5 hours before LPS treatment by intravenous (IV) injection. […] Four hours post LPS administration, animals were euthanized by intraperitoneal injection of thiopentone and 20 mL of cold Hanks Balanced Salt Solution, pH 7.2, was infused into the lungs through tracheal cannulation. BALF was then collected.
Immune cell infiltration was performed by counting total leukocytes using a MUSE® mini flow cytometer, and by manual counting of neutrophil cells in cytospin smears stained with Leishman's staining reagent.

[6] = 0.075 mg/kg IV, 24 h and 0.5 h before LPS
[7] = 0.75 mg/kg IV, 24 h and 0.5 h before LPS

CCC(C)CN1CC2N(C(=O)c3ccc(C(F)(F)F)cc3)CCC(=O)N2[C@@H](C)C1=O (stereo partly drawn) [Compound 1a]
αSMA expression (MRC-5 cells; 1 uM, combined with 0.01 ng/ml HGF): significantly reduced αSMA | Significant reduction in αSMA via HTRF compared to TGFβ alone (MRC-5 cells; test compound 1 nM): NS | Significant reduction in αSMA via HTRF compared to TGFβ alone (MRC-5 cells; test compound 1 μM): ++++ (++++ = p < 0.001) | CXCL10, significant change in cytokine expression in BALF supernatant [1, 6]: + (+ = Significant change in cytokine quantification, p < 0.05 by Student's T-test) | IFN-γ, significant change in cytokine expression in BALF supernatant [1, 6]: + (+ = Significant change in cytokine quantification, p < 0.05 by Student's T-test) | CXCL2, significant change in cytokine expression in BALF supernatant [1, 7]: + (+ = Significant change in cytokine quantification, p < 0.05 by Student's T-test) | CXCL10, significant change in cytokine expression in BALF supernatant [1, 7]: + (+ = Significant change in cytokine quantification, p < 0.05 by Student's T-test) | G-CSF, significant change in cytokine expression in BALF supernatant [1, 7]: + (+ = Significant change in cytokine quantification, p < 0.05 by Student's T-test) | IL-1β, significant change in cytokine expression in BALF supernatant [1, 7]: + (+ = Significant change in cytokine quantification, p < 0.05 by Student's T-test) | cytokines with significant changes in expression in BALF supernatant versus LPS-only animals ([1]; p<0.05, Student's T-test, any tested dose): G-CSF, CXCL2, CXCL10, IFN-γ, and IL-1β | Neutrophils in BALF, reduction in cell count vs disease control [2]: ++ (++ = >25% reduction in cell count vs disease control) | Total Leukocytes in BALF, reduction in cell count vs disease control [2]: ++ (++ = >25% reduction in cell count vs disease control) | PWL (paw withdrawal latency) (CFA-stimulated rats [3]): statistically significant increase | IFN-γ expression in paw skin, change compared to CFA alone (CFA-stimulated rats [4]; 8 mg/kg PO): + (+ = statistically significant change in expression compared to CFA alone, p < 0.05) | IL-4 expression in paw skin, change compared to CFA alone (CFA-stimulated rats [4]; 8 mg/kg PO): + (+ = statistically significant change in expression compared to CFA alone, p < 0.05) | TNF-α expression in paw skin, change compared to CFA alone (CFA-stimulated rats [4]; 8 mg/kg PO): + (+ = statistically significant change in expression compared to CFA alone, p < 0.05) | IFN-γ expression in paw skin, change compared to CFA alone (CFA-stimulated rats [4]; 16 mg/kg PO): NS | IL-4 expression in paw skin, change compared to CFA alone (CFA-stimulated rats [4]; 16 mg/kg PO): + (+ = statistically significant change in expression compared to CFA alone, p < 0.05) | TNF-α expression in paw skin, change compared to CFA alone (CFA-stimulated rats [4]; 16 mg/kg PO): + (+ = statistically significant change in expression compared to CFA alone, p < 0.05) | Neutrophils in BALF, reduction in cell count vs disease control ([5]; 0.075 mg/kg IV): + (+ = >5% reduction in cell count vs disease control) | Total Leukocytes in BALF, reduction in cell count vs disease control ([5]; 0.075 mg/kg IV): + (+ = >5% reduction in cell count vs disease control) | Neutrophils in BALF, reduction in cell count vs disease control ([5]; 0.75 mg/kg IV): NS | Total Leukocytes in BALF, reduction in cell count vs disease control ([5]; 0.75 mg/kg IV): NS | total leukocyte counts and neutrophil counts in BALF compared to LPS-only controls ([5]; IV): reduced both total leukocyte counts and neutrophil counts
